Reference: ChEMBL document CHEMBL3399967, “Design and discovery of 2-oxochromene derivatives as liver X receptor β-selective agonists” (Bioorg Med Chem Lett, 2015)

Columns and labels:
[1] = system: HepG2; experiment: Induction of ABCA1 mRNA expression in human HepG2 cells at 5 uM relative to control; type: functional
[2] = system: HepG2; experiment: Induction of SREBP-1c mRNA expression in human HepG2 cells at 5 uM relative to control; type: functional
[3] = system: HepG2; experiment: Ratio of induction of ABCA1 mRNA expression to SREBP-1c mRNA expression in human HepG2 cells at 5 uM; type: functional
[4] = biological target: T1, Oxysterols receptor LXR-alpha (Homo sapiens, UniProt Q13133); experiment: Agonist activity at Gal4-tagged LXRalpha (unknown origin) expressed in CHOK1 cells after 24 hrs by luciferase reporter gene assay; type: cell-based, CHO-K1
T1 sequence (Q13133 whole entry): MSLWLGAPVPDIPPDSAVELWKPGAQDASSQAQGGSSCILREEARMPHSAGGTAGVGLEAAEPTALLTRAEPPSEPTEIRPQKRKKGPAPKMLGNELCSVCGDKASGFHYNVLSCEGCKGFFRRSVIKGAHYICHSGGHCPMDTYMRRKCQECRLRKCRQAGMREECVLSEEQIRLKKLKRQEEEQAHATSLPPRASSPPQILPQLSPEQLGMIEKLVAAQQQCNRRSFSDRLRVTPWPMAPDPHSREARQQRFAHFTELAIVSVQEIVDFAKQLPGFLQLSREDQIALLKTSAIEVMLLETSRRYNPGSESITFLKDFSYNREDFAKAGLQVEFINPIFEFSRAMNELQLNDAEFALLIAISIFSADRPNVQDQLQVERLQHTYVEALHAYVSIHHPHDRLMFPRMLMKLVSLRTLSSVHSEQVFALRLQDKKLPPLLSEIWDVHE

[5] = biological target: T2, Oxysterols receptor LXR-beta (Homo sapiens, UniProt P55055); experiment: Agonist activity at Gal4-tagged LXRbeta (unknown origin) expressed in CHOK1 cells after 24 hrs by luciferase reporter gene assay; type: cell-based, CHO-K1
T2 sequence (P55055 whole entry): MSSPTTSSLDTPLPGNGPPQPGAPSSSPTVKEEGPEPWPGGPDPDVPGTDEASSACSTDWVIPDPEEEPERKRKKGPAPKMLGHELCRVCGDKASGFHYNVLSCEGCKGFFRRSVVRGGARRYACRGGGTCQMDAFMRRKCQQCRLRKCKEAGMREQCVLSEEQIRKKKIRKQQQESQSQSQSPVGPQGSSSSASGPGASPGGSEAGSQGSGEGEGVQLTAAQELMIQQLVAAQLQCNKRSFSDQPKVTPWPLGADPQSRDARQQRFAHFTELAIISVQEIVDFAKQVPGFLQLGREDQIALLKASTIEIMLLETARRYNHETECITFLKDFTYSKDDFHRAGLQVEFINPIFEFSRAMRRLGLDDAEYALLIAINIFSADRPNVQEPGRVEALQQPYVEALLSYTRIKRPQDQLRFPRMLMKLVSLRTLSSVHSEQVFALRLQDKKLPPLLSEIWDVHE

Which results are given for `O=c1cc(C(F)(F)F)c2cc3c4c(c2o1)CCCN4CCC3`?
fold change (FC) [1]: 9.1; fold change (FC) [2]: 3.9; Ratio [3]: 2.3

What does the source list for `CC(C)c1cc(=O)oc2c3c4c(cc12)CCCN4CCC3`?
fold change (FC) [1]: 5; fold change (FC) [2]: 1.4; Ratio [3]: 3.6

How did the “fold change (FC)” value [1] turn out when `CCN(CC)c1ccc2c(C(F)(F)F)cc(=O)oc2c1` was run?
Its value is 1.3.

What about the “fold change (FC)” value [2] of the same compound?
The value was 3.3.

And the Ratio [3]?
The Ratio was 0.4.

Which results are given for `CCCc1cc2c(C(F)(F)F)cc(=O)oc2c(CCC)c1OCCCCN1C(=O)CSC1=O`?
EC50 ([4]; read-out: EC50): 2.6 µM; EC50 ([5]; read-out: EC50): 1.4 µM

`CCCc1cc2c(C(F)(F)F)cc(=O)oc2c(CCC)c1OCCCCN1C(=O)CN(C)C1=O` was tested. Which EC50 ([4]; read-out: EC50) did it give?
Its EC50 is 2.6 µM.

And the EC50 ([5]; read-out: EC50)?
Its EC50 is 1.3 µM.

How did the EC50 ([5]; read-out: EC50) turn out when `CCCc1cc2c(C(F)(F)F)cc(=O)oc2c(CCC)c1OCCCCN1C(=O)CCC1=O` was run?
The EC50 was 1.4 µM.

Which EC50 ([5]; read-out: EC50) does the source give for `CCCc1cc2c(C(F)(F)F)cc(=O)oc2c(CCC)c1OCCCCN1CCOC1=O` here?
The EC50 was 2.2 µM.

Which EC50 ([4]; cho-k1) does the source give for `CCCc1cc2c(C(F)(F)F)cc(=O)oc2c(CCC)c1OCCCCN1CCCC1=O` here?
The EC50 was “Not Active”.

And the EC50 ([5]; cho-k1)?
Its EC50 is “Not Active”.

For `CCCc1cc2c(C(F)(F)F)cc(=O)oc2c(CCC)c1OCCCCN1C(=O)C(C)N(C)C1=O` (stereo not given), which EC50 ([4]; read-out: EC50) is on record?
The EC50 was 1.7 µM.

What about the EC50 ([5]; read-out: EC50) of the same compound?
The EC50 was 1.3 µM.

What does the source list for `CCCc1cc2c(C(F)(F)F)cc(=O)oc2c(CCC)c1OCCCCN1C(=O)N(C)C(C)(C)C1=O`?
EC50 ([4]; read-out: EC50): 11 µM; EC50 ([5]; read-out: EC50): 4.7 µM

`CCCc1cc2c(C(F)(F)F)cc(=O)oc2c(CCC)c1OCCCCN1C(=O)NC(C)C1=O` (stereo not given) was tested. Which EC50 ([4]; read-out: EC50) did it give?
Its EC50 is 1.5 µM.

And the EC50 ([5]; read-out: EC50)?
Its EC50 is 1.3 µM.

Which results are given for `CCCc1cc2c(C(F)(F)F)cc(=O)oc2c(CCC)c1OCCCCN1C(=O)N(C)C(C)(c2ccccc2)C1=O` (stereo not given)?
EC50 ([4]; cho-k1): Not Active; EC50 ([5]; cho-k1): Not Active

Which results are given for `CCCc1cc2c(C(F)(F)F)cc(=O)oc2c(CCC)c1OCCCCN1C(=O)NC(C)(c2ccccc2)C1=O` (stereo not given)?
EC50 ([4]; cho-k1): Not Active; EC50 ([5]; read-out: EC50): 5.3 µM

What does the source list for `CCCc1cc2c(C(F)(F)F)cc(=O)oc2c(CCC)c1OCCCCN1C(=O)NC(C)(c2ccc(C)cc2)C1=O` (stereo not given)?
EC50 ([4]; cho-k1): Not Active; EC50 ([5]; read-out: EC50): 2.4 µM

What does the source list for `CCCc1cc2c(C(F)(F)F)cc(=O)oc2c(CCC)c1OCCCCN1C(=O)NC(C)(c2ccccc2OC)C1=O` (stereo not given)?
EC50 ([4]; cho-k1): Not Active; EC50 ([5]; cho-k1): Not Active

How did the EC50 ([4]; cho-k1) turn out when `CCCc1cc2c(C(F)(F)F)cc(=O)oc2c(CCC)c1OCCCCN1C(=O)NC(C)(c2cccc(OC)c2)C1=O` (stereo not given) was run?
Its EC50 is “Not Active”.

What about the EC50 ([5]; cho-k1) of the same compound?
The EC50 was “Not Active”.

With `CCCc1cc2c(C(F)(F)F)cc(=O)oc2c(CCC)c1OCCCCN1C(=O)NC(C)(c2ccc(OC)cc2)C1=O` (stereo not given) as the compound, how does the EC50 ([4]; cho-k1) read?
Its EC50 is “Not Active”.

What about the EC50 ([5]; read-out: EC50) of the same compound?
Its EC50 is 0.96 µM.
